Reference: patent US9695155B2, “Herbicidal substituted pyrimidinyloxy benzene compounds” (E. I. DU PONT DE NEMOURS AND COMPANY, priority 2013, dated 2017)

Experiments:
Assay in all cases: Test F preemergence
Conditions in all cases: 21 days, scale 0 to 100
dallisgrass = assay type: in vivo, Paspalum dilatatum
Text: (§1) Seeds of plant species selected from bermudagrass (Cynodon dactylon), surinam grass (Brachiaria decumbens), large (Lg) crabgrass (Digitaria sanguinalis), crabgrass, naked (naked crabgrass, Digitaria nuda), foxtail, green (green foxtail, Setaria viridis), johnsongrass (Sorghum halepense), kochia (Kochia scoparia), morningglory (pitted morningglory, Ipomoea lacunosa), nutsedge, purple (purple nutsedge, Cyperus rotundus), ragweed (common ragweed, Ambrosia elatior), mustard, black (black mustard, Brassica nigra), guineagrass (Panicum maximum), dallisgrass (Paspalum dilatatum), barnyardgrass (Echinochloa crus-galli), sandbur (southern sandbur, Cenchrus echinatus), sowthistle (common sowthistle, Sonchus oleraceous), Italian ryegrass (Lolium multiflorum), signalgrass (broadleaf signalgrass, Brachiaria platyphylla), dayflower (Virginia (VA) dayflower, Commelina virginica), bluegrass (annual bluegrass, Poa annua), quackgrass (Elytrigia repens), mallow (common mallow, Malva sylvestris), buckwheat, wild (wild buckwheat, Polygonum convolvulus), leafy spurge (Euphorbia esula), chickweed (common chickweed, Stellaria media), wild poinsettia (Euphorbia heterophylla), and pigweed (Amaranthus retroflexus) were planted into a blend of loam soil and sand and treated preemergence with test chemicals formulated in a non-phytotoxic solvent mixture which included a surfactant.
(§2) Treated plants and controls were maintained in a greenhouse for 21 days, after which time all species were compared to controls and visually evaluated. Plant response ratings, summarized in Table F, are based on a scale of 0 to 100 where 0 is no effect and 100 is complete control. A dash (-) response means no test result.

large (Lg) crabgrass = assay type: in vivo, Digitaria sanguinalis
Text: as §1, §2

signalgrass = assay type: in vivo, Brachiaria platyphylla
Text: as §1, §2

bermudagrass = assay type: in vivo, Cynodon dactylon
Text: as §1, §2

pigweed = assay type: in vivo, Amaranthus retroflexus
Text: as §1, §2

| SMILES | Plant response rating, Dallisgrass (dallisgrass; 16 g ai/ha) | Plant response rating, Dallisgrass (dallisgrass; 31 g ai/ha) | Plant response rating, Dallisgrass (dallisgrass; 62 g ai/ha) | Plant response rating, Dallisgrass (dallisgrass; 125 g ai/ha) | Plant response rating, Dallisgrass (dallisgrass; 250 g ai/ha) | Plant response rating, Crabgrass, Large (large (Lg) crabgrass; 16 g ai/ha) | Plant response rating, Crabgrass, Large (large (Lg) crabgrass; 31 g ai/ha) | Plant response rating, Crabgrass, Large (large (Lg) crabgrass; 62 g ai/ha) | Plant response rating, Crabgrass, Large (large (Lg) crabgrass; 125 g ai/ha) | Plant response rating, Crabgrass, Large (large (Lg) crabgrass; 250 g ai/ha) | Plant response rating, Signalgrass (signalgrass; 16 g ai/ha) | Plant response rating, Signalgrass (signalgrass; 31 g ai/ha) | Plant response rating, Signalgrass (signalgrass; 62 g ai/ha) | Plant response rating, Signalgrass (signalgrass; 125 g ai/ha) | Plant response rating, Signalgrass (signalgrass; 250 g ai/ha) | Plant response rating, Bermudagrass (bermudagrass; 16 g ai/ha) | Plant response rating, Bermudagrass (bermudagrass; 31 g ai/ha) | Plant response rating, Bermudagrass (bermudagrass; 62 g ai/ha) | Plant response rating, Bermudagrass (bermudagrass; 125 g ai/ha) | Plant response rating, Bermudagrass (bermudagrass; 250 g ai/ha) | further results |
| --- | --- | --- | --- | --- | --- | --- | --- | --- | --- | --- | --- | --- | --- | --- | --- | --- | --- | --- | --- | --- | --- |
| N#Cc1cccc(Oc2ncc(F)cn2)c1-n1cc(C(F)(F)F)cn1 [Compound 79, 3-[(5-fluoro-2-pyrimidinyl)oxy]-2-[4-(trifluoromethyl)-1H-pyrazol-1-yl]benzonitrile] | 65 | 98 | 100 | 100 | 100 | 98 | 100 | 100 | 100 | 100 | 98 | 100 | 100 | 100 | 100 | 98 | 100 | 100 | 100 | 100 | Plant response rating, Pigweed (pigweed; 16 g ai/ha): 100; Plant response rating, Pigweed (pigweed; 31 g ai/ha): 100; Plant response rating, Pigweed (pigweed; 62 g ai/ha): 100; Plant response rating, Pigweed (pigweed; 125 g ai/ha): 100; Plant response rating, Pigweed (pigweed; 250 g ai/ha): 100 |
| N#Cc1cccc(Oc2ncc(Cl)cn2)c1-n1cc(OC(F)F)cn1 [Compound 97] | 75 | 98 | 100 | 100 | 100 | 98 | 100 | 100 | 100 | 100 | 25 | 90 | 85 | 100 | 100 | 80 | 95 | 100 | 100 | 100 | Plant response rating, Pigweed (pigweed; 16 g ai/ha): 100; Plant response rating, Pigweed (pigweed; 31 g ai/ha): 100; Plant response rating, Pigweed (pigweed; 62 g ai/ha): 100; Plant response rating, Pigweed (pigweed; 125 g ai/ha): 100; Plant response rating, Pigweed (pigweed; 250 g ai/ha): 100 |
